In assay [1] the target is T1, Muscarinic acetylcholine receptor M2 (Homo sapiens, UniProt P08172). The assay can be described thus: Displacement of [3H]-NMS from muscarinic M2 receptor (unknown origin) expressed in A9 cells by scintillation counting analysis. Format: cell-based. For orientation: In a radioligand displacement assay an active substance lowers the binding of a labelled ligand.
The target of assay [2] is T2, Muscarinic acetylcholine receptor M4 (Homo sapiens, UniProt P08173).
T2 sequence (P08173 whole entry): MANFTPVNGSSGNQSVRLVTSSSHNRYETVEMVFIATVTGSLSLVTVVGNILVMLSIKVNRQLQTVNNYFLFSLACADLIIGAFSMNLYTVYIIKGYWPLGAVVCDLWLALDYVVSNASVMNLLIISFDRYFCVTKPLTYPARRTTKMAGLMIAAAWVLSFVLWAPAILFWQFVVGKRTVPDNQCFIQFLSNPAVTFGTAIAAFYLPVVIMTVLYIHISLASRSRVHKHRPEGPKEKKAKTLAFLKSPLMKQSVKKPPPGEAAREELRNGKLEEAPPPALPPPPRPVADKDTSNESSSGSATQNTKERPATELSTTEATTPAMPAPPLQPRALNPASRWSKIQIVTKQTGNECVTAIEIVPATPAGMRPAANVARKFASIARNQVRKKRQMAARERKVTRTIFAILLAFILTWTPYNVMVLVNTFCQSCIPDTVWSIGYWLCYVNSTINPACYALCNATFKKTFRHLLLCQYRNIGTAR
In words: Displacement of [3H]-NMS from muscarinic M4 receptor (unknown origin) expressed in NG108-15 cells by scintillation counting analysis. The assay is classed as cell-based.

In assay [3] the target is T3, Muscarinic acetylcholine receptor M1 (Homo sapiens, UniProt P11229).
T3 sequence (P11229 whole entry): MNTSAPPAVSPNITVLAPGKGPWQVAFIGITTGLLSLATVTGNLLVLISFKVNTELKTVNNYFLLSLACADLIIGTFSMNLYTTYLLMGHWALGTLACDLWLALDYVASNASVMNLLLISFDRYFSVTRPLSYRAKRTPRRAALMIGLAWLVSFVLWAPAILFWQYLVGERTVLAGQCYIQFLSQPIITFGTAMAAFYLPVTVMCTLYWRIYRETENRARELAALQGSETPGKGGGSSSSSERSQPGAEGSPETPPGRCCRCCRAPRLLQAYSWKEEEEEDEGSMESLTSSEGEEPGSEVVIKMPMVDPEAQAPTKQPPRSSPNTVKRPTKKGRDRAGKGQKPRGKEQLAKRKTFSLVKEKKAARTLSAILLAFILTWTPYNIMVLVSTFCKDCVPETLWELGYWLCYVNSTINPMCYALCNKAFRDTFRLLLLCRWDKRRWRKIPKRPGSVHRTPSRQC
In words: Displacement of [3H]NMS from human recombinant muscarinic receptor M1 expressed in CHO-K9 cell membranes measured after 3 hrs by radioligand competition binding assay. Set-up: species or system Membrane.

The target of assay [4] is T1, Muscarinic acetylcholine receptor M2. In words: Displacement of [3H]NMS from human recombinant muscarinic receptor M2 expressed in CHO-K9 cell membranes measured after 3 hrs by radioligand competition binding assay. Set-up: species or system Membrane.
The target of assay [5] is Muscarinic acetylcholine receptor M3 (Homo sapiens, UniProt P20309). The assay can be described thus: Displacement of [3H]NMS from human recombinant muscarinic receptor M3 expressed in CHO-K9 cell membranes measured after 3 hrs by radioligand competition binding assay. Set-up: species or system Membrane.
Muscarinic acetylcholine receptor M3, sequence (P20309 whole entry): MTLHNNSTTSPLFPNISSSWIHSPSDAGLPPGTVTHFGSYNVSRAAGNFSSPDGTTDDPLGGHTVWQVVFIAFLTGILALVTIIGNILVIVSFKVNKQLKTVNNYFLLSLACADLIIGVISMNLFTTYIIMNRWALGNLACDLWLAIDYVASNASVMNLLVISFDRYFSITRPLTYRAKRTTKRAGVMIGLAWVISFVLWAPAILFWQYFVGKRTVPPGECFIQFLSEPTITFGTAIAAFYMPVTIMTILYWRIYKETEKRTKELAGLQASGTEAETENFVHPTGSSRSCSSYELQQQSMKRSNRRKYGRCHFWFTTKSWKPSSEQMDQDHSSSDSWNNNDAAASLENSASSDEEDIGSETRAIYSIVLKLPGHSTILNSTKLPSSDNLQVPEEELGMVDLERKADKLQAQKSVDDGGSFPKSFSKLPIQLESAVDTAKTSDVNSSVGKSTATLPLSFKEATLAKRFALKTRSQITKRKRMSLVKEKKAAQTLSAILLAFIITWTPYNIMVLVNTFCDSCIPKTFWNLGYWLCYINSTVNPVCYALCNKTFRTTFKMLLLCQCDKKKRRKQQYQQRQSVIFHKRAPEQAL
The target of assay [6] is T2, Muscarinic acetylcholine receptor M4. In words: Displacement of [3H]NMS from human recombinant muscarinic receptor M4 expressed in CHO-K9 cell membranes measured after 3 hrs by radioligand competition binding assay. Set-up: species or system Membrane.
Assay [7] deals with T4, Muscarinic acetylcholine receptor M5 (Homo sapiens, UniProt P08912).
T4 sequence (P08912 whole entry): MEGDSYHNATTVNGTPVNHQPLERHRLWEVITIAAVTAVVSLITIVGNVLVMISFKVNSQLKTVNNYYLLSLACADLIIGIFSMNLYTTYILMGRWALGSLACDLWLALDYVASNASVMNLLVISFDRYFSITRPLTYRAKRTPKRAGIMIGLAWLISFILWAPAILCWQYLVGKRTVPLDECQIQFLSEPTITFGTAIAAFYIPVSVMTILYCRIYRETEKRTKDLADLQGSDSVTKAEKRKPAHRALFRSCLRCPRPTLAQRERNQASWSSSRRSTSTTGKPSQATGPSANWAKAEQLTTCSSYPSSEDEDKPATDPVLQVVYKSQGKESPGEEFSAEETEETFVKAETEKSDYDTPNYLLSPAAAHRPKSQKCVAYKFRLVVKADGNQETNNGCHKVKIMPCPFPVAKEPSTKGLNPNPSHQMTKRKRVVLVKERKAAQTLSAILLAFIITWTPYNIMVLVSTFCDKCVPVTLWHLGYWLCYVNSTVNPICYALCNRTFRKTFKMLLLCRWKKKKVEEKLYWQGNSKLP
The assay can be described thus: Displacement of [3H]NMS from human recombinant muscarinic receptor M5 expressed in CHO-K9 cell membranes measured after 3 hrs by radioligand competition binding assay. Set-up: species or system Membrane.

Assay [8] has as its target T5, Muscarinic acetylcholine receptor M2 (Homo sapiens, UniProt P08172).
T5 sequence (P08172 whole entry): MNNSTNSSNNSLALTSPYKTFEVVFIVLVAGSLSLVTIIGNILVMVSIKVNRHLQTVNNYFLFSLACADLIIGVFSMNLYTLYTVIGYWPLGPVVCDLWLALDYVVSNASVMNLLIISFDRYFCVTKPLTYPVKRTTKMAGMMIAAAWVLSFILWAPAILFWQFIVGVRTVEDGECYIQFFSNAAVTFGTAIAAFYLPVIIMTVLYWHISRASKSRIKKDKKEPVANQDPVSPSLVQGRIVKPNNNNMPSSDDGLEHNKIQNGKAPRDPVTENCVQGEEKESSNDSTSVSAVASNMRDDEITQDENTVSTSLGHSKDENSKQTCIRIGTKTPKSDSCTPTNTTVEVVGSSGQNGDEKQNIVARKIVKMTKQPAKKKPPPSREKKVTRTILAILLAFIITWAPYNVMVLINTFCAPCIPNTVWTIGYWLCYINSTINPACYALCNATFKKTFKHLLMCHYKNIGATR
The assay can be described thus: Binding affinity to human muscarinic M2 receptor expressed in CHO-K9 cells assessed as unspecific binding at Kd incubated in dark at 22 degree C for 2 hrs in presence of atropine by FACSCantoII flow cytometric saturation binding study relative to control. The assay is classed as cell-based.

Assay [9] concerns the target T5, Muscarinic acetylcholine receptor M2. The assay can be described thus: Binding affinity to human muscarinic M2 receptor expressed in CHO-K9 cells assessed as unspecific binding at Kd incubated in dark at 22 degree C for 2 hrs in presence of atropine by FACSCalibur flow cytometric saturation binding study relative to control. The assay is classed as cell-based. On the technique in general: Flow cytometry measures light scatter and fluorescence of single cells or particles in a stream.

The source of these data is ChEMBL document CHEMBL4715686, “Differently fluorescence-labelled dibenzodiazepinone-type muscarinic acetylcholine receptor ligands with high M2R affinity” (RSC Med Chem, 2020).

Regarding `CCN(CC)CCCCC1CCN(CC(=O)N2c3ccccc3NC(=O)c3ccccc32)CC1`, the results for the Ki in assay [1] and in assay [2] were 0.316 nM and 2 nM, respectively.
As for `O=C(CCCCCNC(=O)COc1ccc(/C=C/C2=[N+]3C(=Cc4ccc(-c5cccs5)n4[B-]3(F)F)C=C2)cc1)NCCNC(=O)CCc1cn(CCCCC2CCN(CC(=O)N3c4ccccc4NC(=O)c4ccccc43)CC2)cn1`, the inhibition constant Ki (in general, a dissociation constant, usually derived from enzyme kinetics or from competition with a known ligand) was 1 nM in [3]; 0.692 nM in assay [4]; 37.2 nM in assay [5]; 0.417 nM in [6]; 10 nM in assay [7]. Also, the figures for the Kd in assay [8] (read-out: Kd) and in [8] (read-out: pKd (converted)) were 4.5 nM and 3.89 nM, respectively.
Turning to `CN(C)c1ccc2c(-c3ccc(C(=O)NCCNC(=O)CCc4cn(CCCCC5CCN(CC(=O)N6c7ccccc7NC(=O)c7ccccc76)CC5)cn4)cc3C(=O)[O-])c3ccc(=[N+](C)C)cc-3oc2c1`, the inhibitory constant (Ki) in assay [3] was 6.17 nM; in assay [4], 1.78 nM; in assay [5], 129 nM; in assay [6], 3.72 nM; in assay [7] it was 275 nM. Also, the Kd in assay [8] (read-out: Kd) is 2.4 nM; in [8] (read-out: pKd (converted)), 4.37 nM.
As to `CN(C)c1ccc2c(-c3ccc(C(=O)NCCN4CCN(CCCCC5CCN(CC(=O)N6c7ccccc7NC(=O)c7ccccc76)CC5)CC4)cc3C(=O)[O-])c3ccc(=[N+](C)C)cc-3oc2c1`, the Ki in [3] is 2.57 nM; in assay [4], 0.24 nM; in assay [5], 81.3 nM; in assay [6], 0.977 nM; in assay [7], 178 nM. Also, the Kd was 0.6 nM in assay [9] (read-out: Kd) and 1.38 nM in assay [9] (read-out: pKd (converted)).
Consider `Cc1cc(/C=C/c2cc3c4c(c2)CCCN4CCC3)cc(C)[n+]1CCN1CCN(CCCCC2CCN(CC(=O)N3c4ccccc4NC(=O)c4ccccc43)CC2)CC1`, for which the Ki in [3] is 4.79 nM; in [4] it was 0.955 nM; in assay [5], 63.1 nM; in assay [6], 2.69 nM; in assay [7], 126 nM. The Kd in assay [8] (read-out: Kd) was 1.9 nM; in assay [8] (read-out: pKd (converted)), 0.646 nM.
For `NCCN1CCN(CCCCC2CCN(CC(=O)N3c4ccccc4NC(=O)c4ccccc43)CC2)CC1`, the Ki in [4] was 0.562 nM.
As to `Cc1scc2c1N(C(=O)CN1CCN(CCCCCCCCCCNC(=O)Cc3ccc4c(c3)C(C)(C)C3=C5C=C6C7=[N+](CCC6OC5CCN34)c3ccc(S(=O)(=O)[O-])cc3C7(C)C)CC1)c1ccccc1NC2=O` (stereo not given), the inhibitory constant (Ki) in [3] is 0.0316 nM; in [4], 0.0398 nM.
As to `Cc1cc(/C=C/C=C/c2ccc(N(C)C)cc2)cc(C)[n+]1CCN1CCN(CCCCC2CCN(CC(=O)N3c4ccccc4NC(=O)c4ccccc43)CC2)CC1`, the Kd was 1.4 nM in [8] (read-out: Kd) and 2.34 nM in assay [8] (read-out: pKd (converted)).
As for `Cc1cc(/C=C/C=C/c2ccc(N(C)C)cc2)cc(C)[n+]1CCNC(=O)CCc1cn(CCCCC2CCN(CC(=O)N3c4ccccc4NC(=O)c4ccccc43)CC2)cn1`, the inhibition constant Ki in assay [3] is 4.9 nM; in [4] it was 0.912 nM; in assay [5], 85.1 nM; in assay [6], 4.27 nM; in assay [7], 70.8 nM. Besides, in [8] (read-out: Kd), the Kd was 2 nM.
For the compound `Cc1scc2c1N(C(=O)CN1CCN(CCCCCCCCCCNC(=O)c3ccc(-c4c5ccc(=N)c(S(=O)(=O)O)c-5oc5c(S(=O)(=O)O)c(N)ccc45)c(C(=O)O)c3)CC1)c1ccccc1NC2=O`, the values for the Ki in [3] and in assay [4] were 0.501 nM and 1.58 nM, respectively.
As to `Cc1cc(/C=C/c2cc3c4c(c2)CCCN4CCC3)cc(C)[n+]1CCNC(=O)CCc1cn(CCCCC2CCN(CC(=O)N3c4ccccc4NC(=O)c4ccccc43)CC2)cn1`, the inhibition constant (Ki) is 7.08 nM in [3]; 1.35 nM in assay [4]; 69.2 nM in assay [5]; 2.63 nM in [6]; 40.7 nM in assay [7]. In addition, the Kd in assay [8] (read-out: Kd) is 3.8 nM; in assay [8] (read-out: pKd (converted)), 2 nM.
